# Measured values reported in US10596150B2, “Antifungal agents” (F2G LIMITED, priority 2014, dated 2020).
# Columns and labels:
# Format in all cases: cell-based
# [1] = tested on: Scedosporium prolificans 6322; test: Minimum Inhibitory Concentration (MIC), RPMI medium; settings: Lomentospora prolificans
# Protocol: (§1) Between 1 and 5 mgs of the compound were accurately weighed out into a sterile Eppendorf tube. The compound was dissolved in DMSO to give a solution containing 5 mg/mL. Tubes were stored at −20° C. until required.
# (§2) On the day of testing thawed solutions were vortex mixed to ensure homogeneity. 30 μL of solution was removed and added to 570 μL of sterile water in a separate sterile Eppendorf. The thoroughly mixed solution was used to prepare a series of doubling dilutions in water, in a deep well plate. Thirteen replicate plates were prepared using a Minitrak by aspirating 20 μL from each well into eleven clear polystyrene 96 well plates.
# (§3) Spores of Aspergillus and Scedosporium were harvested from cultures grown on Sabarauds agar for 5 days, and resuspended in PBS/Tween 80 to approx 1×10^7 cfu/mL. Each organism suspension was diluted in RPMI medium, containing 2% glucose and 0.135 M MOPS buffer (pH 7.0) to 0.5-2×10^4 cfu/mL. 80 μL of an organism suspension was added to each well of the plate containing drug dilutions.
# (§4) This produced MIC plates with a drug range 50-0.05 mg/L and organism inocula of 1-2×10^4 cfu/mL. All plates were incubated for 24-48 h at 35° C. Growth was assessed by monitoring the optical density at 485 nm for each well. The MIC of a compound is the lowest drug concentration that inhibits growth of an organism by >80% compared with a drug free control.
# [2] = tested on: Scedosporium prolifican 8353; test: as above
# Protocol: as §1, §2, §3, §4
# [3] = tested on: Scedosporium prolifican 15849; test: as above
# Protocol: as §1, §2, §3, §4
# [4] = tested on: Scedosporium prolifican 451; test: as above
# Protocol: as §1, §2, §3, §4
# [5] = tested on: Scedos apiospermum 1124; test: as above; settings: Scedosporium apiospermum
# Protocol: as §1, §2, §3, §4
# [6] = tested on: Scedosporium species 15849; test: as above
# Protocol: as §1, §2, §3, §4
# [7] = tested on: Scedosporium prolifican 7935; test: as above
# Protocol: as §1, §2, §3, §4
# [8] = tested on: Scedosporium apiospermum 15848; test: as above
# Protocol: as §1, §2, §3, §4
# [9] = tested on: Scedosporium prolifican 15848; test: as above
# Protocol: as §1, §2, §3, §4
# [10] = tested on: Scedosporium prolifican 1121; test: as above
# Protocol: as §1, §2, §3, §4
# [11] = tested on: Scedosporium apiospermum 13486; test: as above
# Protocol: as §1, §2, §3, §4
# [12] = tested on: A. terreus; test: as above; settings: Aspergillus terreus, >80% growth inhibition
# Protocol: as §1, §2, §3, §4
# [13] = tested on: Scedosporium prolifican 4883; test: as above
# Protocol: as §1, §2, §3, §4
# [14] = tested on: Scedosporium prolificans 18389; test: as above; settings: Lomentospora prolificans
# Protocol: as §1, §2, §3, §4
# [15] = tested on: A. fumigatus 210; test: as above; settings: Aspergillus fumigatus, >80% growth inhibition
# Protocol: as §1, §2, §3, §4
# [16] = tested on: A. fumigatus; test: as above; settings: Aspergillus fumigatus, >80% growth inhibition
# Protocol: as §1, §2, §3, §4
# [17] = tested on: Scedosporium apiospermum 4883; test: as above
# Protocol: as §1, §2, §3, §4
# [18] = tested on: A. flavus; test: as above; settings: Aspergillus flavus, >80% growth inhibition
# Protocol: as §1, §2, §3, §4
# [19] = tested on: Scedosporium prolifican 13486; test: as above
# Protocol: as §1, §2, §3, §4
# [20] = tested on: Scedosporium prolifican 201; test: as above
# Protocol: as §1, §2, §3, §4
# [21] = tested on: Scedosporium apiospermum 7935; test: as above
# Protocol: as §1, §2, §3, §4
# [22] = tested on: Scedosporium apiospermum 8353; test: as above
# Protocol: as §1, §2, §3, §4
# [23] = tested on: A. terreus 49; test: as above; settings: Aspergillus terreus, >80% growth inhibition
# Protocol: as §1, §2, §3, §4
# [24] = tested on: A. niger; test: as above; settings: Aspergillus niger, >80% growth inhibition
# Protocol: as §1, §2, §3, §4
# [25] = tested on: Scedosporium prolificans 206; test: as above; settings: Lomentospora prolificans
# Protocol: as §1, §2, §3, §4
# [26] = tested on: Scedosporium apiospermum 451; test: as above
# Protocol: as §1, §2, §3, §4
# [27] = tested on: S. dehoogii; test: Analogous MIC experiments
# Protocol: as §1, §2, §3, §4
# [28] = tested on: S. boydii; test: Analogous MIC experiments
# Protocol: as §1, §2, §3, §4
# [29] = tested on: S. aurantiacum; test: Analogous MIC experiments
# Protocol: as §1, §2, §3, §4
structure (smiles),measurement,setting,value
"Cc1cc(-c2ccccc2)c(C(=O)C(=O)Nc2ccc(N3CCN(c4ncc(F)cn4)CC3)cc2)n1C [Example 1, 2-(1,5-dimethyl-3-phenyl-1H-pyrrol-2-yl)-N-(4-(4-(5-fluoropyrimidin-2-yl)piperazin-1-yl)phenyl)-2-oxoacetamide]",MIC,[1],0.02 to 0.04 µg/mL
same,MIC,[2],0.005 to 0.01 µg/mL
same,MIC,[3],0.04 to 0.06 µg/mL
same,MIC,[4],0.005 to 0.01 µg/mL
same,MIC,[5],≤ 0.005 µg/mL
same,MIC,[6],0.04 to 0.06 µg/mL
same,MIC,[7],0.01 to 0.02 µg/mL
same,MIC,[8],0.02 to 0.04 µg/mL
same,MIC,[9],0.02 to 0.04 µg/mL
same,MIC,[10],≤ 0.005 µg/mL
same,MIC Scedosporium apiospermum 13486,[11],D (A grade of D represents an MIC of greater than 0.02 mg/L but less than or equal to 0.04 mg/L)
same,MIC,"[11]; Scedosporium apiospermum, 13486",0.02 to 0.04 µg/mL
same,MIC,[12],≤ 0.005 µg/mL
same,MIC,[13],0.01 to 0.02 µg/mL
same,MIC,[14],0.01 to 0.02 µg/mL
same,MIC,[15],0.01 to 0.02 µg/mL
same,MIC,[16],0.01 to 0.02 µg/mL
same,MIC,[17],0.01 to 0.02 µg/mL
same,MIC,[18],0.005 to 0.01 µg/mL
same,MIC,[19],0.02 to 0.04 µg/mL
same,MIC,[20],0.02 to 0.04 µg/mL
same,MIC,[21],0.01 to 0.02 µg/mL
same,MIC,[22],0.005 to 0.01 µg/mL
same,MIC,[23],≤ 0.005 µg/mL
same,MIC,[24],0.01 to 0.02 µg/mL
same,MIC,[25],0.02 to 0.04 µg/mL
same,MIC,[26],0.005 to 0.01 µg/mL
same,antifungal activity against S. dehoogii,[27],good antifungal activity
same,antifungal activity against S. boydii,[28],good antifungal activity
same,antifungal activity against S. aurantiacum,[29],good antifungal activity
